According to publication PMC10648875 (Antimicrobial Agents and Chemotherapy, 2023):
Converted amounts (≈) assume the structure as drawn. Like-named read-outs stand apart in the source and are kept apart here.

Legend:
[1] = test system: PAM4743 producing CTX-M-15; experiment: MIC, engineered isogenic strain; type: cell-based, P. aeruginosa; details: CTX-M-15, class A; BLIs at fixed 4 µg/mL
[2] = test system: PAM4842 producing PER-2; experiment: MIC, engineered isogenic strain; type: cell-based, P. aeruginosa; details: PER-2, class A; BLIs at fixed 4 µg/mL
[3] = test system: PAM4917 producing NDM-7; experiment: MIC, engineered isogenic strain; type: cell-based, P. aeruginosa; details: NDM-7, class B; BLIs at fixed 4 µg/mL
[4] = test system: PAM4689 producing KPC-3; experiment: MIC, engineered isogenic strain; type: cell-based, P. aeruginosa; details: KPC-3, class A; BLIs at fixed 4 µg/mL
[5] = test system: PAM4888 producing IMP-4; experiment: MIC, engineered isogenic strain; type: cell-based, P. aeruginosa; details: IMP-4, class B; BLIs at fixed 4 µg/mL
[6] = test system: PAM4883 producing GIM-1; experiment: MIC, engineered isogenic strain; type: cell-based, P. aeruginosa; details: GIM-1, class B; BLIs at fixed 4 µg/mL
[7] = test system: PAM4908 producing VEB-1; experiment: MIC, engineered isogenic strain; type: cell-based, P. aeruginosa; details: VEB-1, class A; BLIs at fixed 4 µg/mL
[8] = test system: PAM4217 producing OXA-48; experiment: MIC, engineered isogenic strain; type: cell-based, P. aeruginosa; details: OXA-48, class D; BLIs at fixed 4 µg/mL
[9] = test system: PAM4798 producing VIM-2; experiment: MIC, engineered isogenic strain; type: cell-based, P. aeruginosa; details: VIM-2, class B; BLIs at fixed 4 µg/mL
[10] = test system: PAM4792 producing OXA-2; experiment: MIC, engineered isogenic strain; type: cell-based, P. aeruginosa; details: OXA-2, class D; BLIs at fixed 4 µg/mL
[11] = test system: PAM4889 producing IMP-26; experiment: MIC, engineered isogenic strain; type: cell-based, P. aeruginosa; details: IMP-26, class B; BLIs at fixed 4 µg/mL
[12] = test system: PAM4874 producing SHV-12; experiment: MIC, engineered isogenic strain; type: cell-based, P. aeruginosa; details: SHV-12, class A; BLIs at fixed 4 µg/mL
[13] = test system: PAM4878 producing TEM-10; experiment: MIC, engineered isogenic strain; type: cell-based, P. aeruginosa; details: TEM-10, class A; BLIs at fixed 4 µg/mL
[14] = test system: PAM4179 producing NDM-1; experiment: MIC, engineered isogenic strain; type: cell-based, P. aeruginosa; details: NDM-1, class B; BLIs at fixed 4 µg/mL
[15] = test system: PAM4827 producing OXA-1; experiment: MIC, engineered isogenic strain; type: cell-based, P. aeruginosa; details: OXA-1, class D; BLIs at fixed 4 µg/mL
[16] = test system: PAM4744 producing SME-2; experiment: MIC, engineered isogenic strain; type: cell-based, P. aeruginosa; details: SME-2, class A; BLIs at fixed 4 µg/mL
[17] = test system: PAM4880 producing L1; experiment: MIC, engineered isogenic strain; type: cell-based, P. aeruginosa; details: L1, class B; BLIs at fixed 4 µg/mL
[18] = test system: PAM4135 producing KPC-2; experiment: MIC, engineered isogenic strain; type: cell-based, P. aeruginosa; details: KPC-2, class A; BLIs at fixed 4 µg/mL
[19] = test system: PAM4795 producing VIM-1; experiment: MIC, engineered isogenic strain; type: cell-based, P. aeruginosa; details: VIM-1, class B; BLIs at fixed 4 µg/mL
[20] = test system: carbapenem-resistant Enterobacterales (subset of 507 isolates); experiment: organism not typed; type: cell-based; details: xeruborbactam and vaborbactam fixed 8 mg/L, all other BLIs 4 mg/L; for MIC50: read-out: MIC50; for MIC90: read-out: MIC90

SMILES: CO/N=C(\C(=O)N[C@@H]1C(=O)N2C(C(=O)[O-])=C(C[N+]3(C)CCCC3)CS[C@H]12)c1csc(N)n1 [FEP, cefepime]
- MIC [1]: > 64 mg/L
- MIC [2]: 64 mg/L (≈ 133 µM)
- MIC [3]: > 64 mg/L
- MIC [4]: > 64 mg/L
- MIC [5]: 32 mg/L (≈ 66.6 µM)
- MIC [6]: 8 mg/L (≈ 16.6 µM)
- MIC [7]: > 64 mg/L
- MIC [8]: 0.5 mg/L (≈ 1.04 µM)
- MIC [9]: 8 mg/L (≈ 16.6 µM)
- MIC [10]: 0.5 mg/L (≈ 1.04 µM)
- MIC [11]: 64 mg/L (≈ 133 µM)
- MIC [12]: 64 mg/L (≈ 133 µM)
- MIC [13]: 16 mg/L (≈ 33.3 µM)
- MIC [14]: > 64 mg/L
- MIC [15]: 1 mg/L (≈ 2.08 µM)
- MIC [16]: 0.5 mg/L (≈ 1.04 µM)
- MIC [17]: 4 mg/L (≈ 8.32 µM)
- MIC [18]: > 64 mg/L
- MIC [19]: > 64 mg/L
- MIC50 ([20]; CRE (N = 507)): > 64 mg/L
- MIC90 ([20]; CRE (N = 507)): > 64 mg/L
- MIC50 ([20]; KPC (N = 193)): > 64 mg/L
- MIC90 ([20]; KPC (N = 193)): > 64 mg/L
- MIC50 ([20]; MBL (N = 168)): > 64 mg/L
- MIC90 ([20]; MBL (N = 168)): > 64 mg/L
- MIC50 ([20]; Non-CP CRE (N = 50)): > 64 mg/L
- MIC90 ([20]; Non-CP CRE (N = 50)): > 64 mg/L
- MIC50 ([20]; OXA-48-like (N = 96)): > 64 mg/L
- MIC90 ([20]; OXA-48-like (N = 96)): > 64 mg/L

SMILES: C[C@@H](O)[C@H]1C(=O)N2C(C(=O)O)=C(S[C@@H]3CN[C@H](C(=O)N(C)C)C3)[C@H](C)[C@H]12 [MEM, meropenem]
- MIC [1]: 0.25 mg/L (≈ 0.652 µM)
- MIC [2]: 0.125 mg/L (≈ 0.326 µM)
- MIC [3]: 32 mg/L (≈ 83.4 µM)
- MIC [4]: 64 mg/L (≈ 167 µM)
- MIC [5]: 4 mg/L (≈ 10.4 µM)
- MIC [6]: 32 mg/L (≈ 83.4 µM)
- MIC [7]: 0.5 mg/L (≈ 1.3 µM)
- MIC [8]: 4 mg/L (≈ 10.4 µM)
- MIC [9]: 8 mg/L (≈ 20.9 µM)
- MIC [10]: 2 mg/L (≈ 5.22 µM)
- MIC [11]: 8 mg/L (≈ 20.9 µM)
- MIC [12]: 0.25 mg/L (≈ 0.652 µM)
- MIC [13]: 0.125 mg/L (≈ 0.326 µM)
- MIC [14]: 32 mg/L (≈ 83.4 µM)
- MIC [15]: ≤ 0.06 mg/L
- MIC [16]: 8 mg/L (≈ 20.9 µM)
- MIC [17]: 32 mg/L (≈ 83.4 µM)
- MIC [18]: 32 mg/L (≈ 83.4 µM)
- MIC [19]: 4 mg/L (≈ 10.4 µM)
- MIC50 ([20]; CRE (N = 507)): 0.5 mg/L
- MIC90 ([20]; CRE (N = 507)): > 64 mg/L
- MIC50 ([20]; KPC (N = 193)): 16 mg/L
- MIC90 ([20]; KPC (N = 193)): > 64 mg/L
- MIC50 ([20]; MBL (N = 168)): 64 mg/L
- MIC90 ([20]; MBL (N = 168)): > 64 mg/L
- MIC50 ([20]; Non-CP CRE (N = 50)): 4 mg/L
- MIC90 ([20]; Non-CP CRE (N = 50)): 16 mg/L
- MIC50 ([20]; OXA-48-like (N = 96)): 16 mg/L
- MIC90 ([20]; OXA-48-like (N = 96)): 64 mg/L
